In patent US12257237B2 (priority 2017, dated 2025):
“And” between values parts separate entries of the source, which are not always exact repeats. Identical values can stand only once.

Experiments:
[1] = Drug tolerability (body weight) in TC-71 Ewing sarcoma xenograft model; format: in vivo, Athymic nude mice; settings: Irinotecan 50 mg/kg; for BWL %: negative = loss vs day 9
Procedure: (§1) Experiments were performed with female Athymic nude mice, 9-10 weeks old obtained from Harlan Laboratories (Udine, Italy). They were maintained under Specific Pathogen Free conditions with constant temperature and humidity, according to the institutional guidelines.
(§2) Tumour growth mice was monitored two/three times a week (depending on tumour growth rate, to avoid unnecessary stress to the animals) by Vernier caliper. Mice were sacrificed when tumour reached a mean weight of 2±0.5 gr. The antitumour activity will be expressed as T/C %, where T and C were the mean tumour weight of treated and control groups, respectively. Mice were monitored daily and weighted at least two times a week. Tolerability was evaluated on the basis of body weight loss (BWL) and clinical observation.

TC-71 Ewing sarcoma = assay: Antitumour activity in TC-71 Ewing sarcoma xenograft model; format: in vivo, Athymic nude mice
Procedure: as §1, §2
Statistical analysis was performed with GraphPad Prism version 6.01 software (GraphPad software, Inc., La Jolla, CA, USA). ANOVA test was performed to evaluate if there were statistically significant differences between treated and control groups.
5×10^6 TC-71 cells were inoculated subcutaneously in the right flank of mice. The growing tumour masses were measured with the aid of a Vernier caliper, and the tumour weights (1 mm^3=1 mg) were calculated by the formula: length×(width) 2/2. When tumour load achieved about 100 mg, mice were randomized into the experimental groups and treatment started.

[2] = day 9 from tumour inoculum (treatment start)
[3] = 50 mg/kg i.v. q7dx3, day 9 from inoculum
[4] = 50 mg/kg i.v. q7dx3, day 11 from inoculum
[5] = 50 mg/kg i.v. q7dx3, day 14 from inoculum
[6] = 50 mg/kg i.v. q7dx3, day 16 from inoculum
[7] = 50 mg/kg i.v. q7dx3, day 18 from inoculum
[8] = 50 mg/kg i.v. q7dx3, day 21 from inoculum
[9] = 50 mg/kg i.v. q7dx3, day 23 from inoculum
[10] = 50 mg/kg i.v. q7dx3, day 25 from inoculum
[11] = 50 mg/kg i.v. q7dx3, day 28 from inoculum
[12] = 50 mg/kg i.v. q7dx3, day 30 from inoculum
[13] = 50 mg/kg i.v. q7dx3, day 32 from inoculum
[14] = 50 mg/kg i.v. q7dx3, day 35 from inoculum
[15] = 50 mg/kg i.v. q7dx3, day 38 from inoculum
[16] = 50 mg/kg i.v. q7dx3, day 42 from inoculum
[17] = 50 mg/kg i.v. q7dx3, day 45 from inoculum
[18] = 50 mg/kg i.v. q7dx3, day 49 from inoculum
[19] = 50 mg/kg i.v. q7dx3, day 53 from inoculum

For CCc1c2c(nc3ccc(OC(=O)N4CCC(N5CCCCC5)CC4)cc13)-c1cc3c(c(=O)n1C2)COC(=O)[C@]3(O)CC [Irinotecan, reference compound], the “Mouse body weight, group Mean” value [1, 2] was 27.4 g, the BWL % [1, 2] was 0.0% and the “Mouse body weight, group Mean” value ([1]; day 10 from tumour inoculum) was 25.8 g. For the same compound, the BWL % ([1]; day 10 from tumour inoculum) was −6.1%, the “Mouse body weight, group Mean” value ([1]; day 11 from tumour inoculum) was 25.6 g and the BWL % ([1]; day 11 from tumour inoculum) was −6.6%. The “Mouse body weight, group Mean” value ([1]; day 14 from tumour inoculum) was 26.9 g, the BWL % ([1]; day 14 from tumour inoculum) was −1.9% and the “Mouse body weight, group Mean” value ([1]; day 16 from tumour inoculum) was 27.0 g. For the same compound, the BWL % ([1]; day 16 from tumour inoculum) was −1.7%, the “Mouse body weight, group Mean” value ([1]; day 18 from tumour inoculum) was 26.0 g and the BWL % ([1]; day 18 from tumour inoculum) was −5.3%. The “Mouse body weight, group Mean” value ([1]; day 21 from tumour inoculum) was 26.2 g, the BWL % ([1]; day 21 from tumour inoculum) was −4.3% and the “Mouse body weight, group Mean” value ([1]; day 23 from tumour inoculum) was 26.5 g. For the same compound, the BWL % ([1]; day 23 from tumour inoculum) was −3.5%, the “Mouse body weight, group Mean” value ([1]; day 25 from tumour inoculum) was 25.4 g and the BWL % ([1]; day 25 from tumour inoculum) was −7.5%. The “Mouse body weight, group Mean” value ([1]; day 28 from tumour inoculum) was 26.4 g, the BWL % ([1]; day 28 from tumour inoculum) was −3.9% and the “Mouse body weight, group Mean” value ([1]; day 30 from tumour inoculum) was 27.1 g. The BWL % ([1]; day 30 from tumour inoculum) was −1.1%, the “Mouse body weight, group Mean” value ([1]; day 32 from tumour inoculum) was 27.0 g and the BWL % ([1]; day 32 from tumour inoculum) was −1.6%. The “Mouse body weight, group Mean” value ([1]; day 35 from tumour inoculum) was 27.9 g, the BWL % ([1]; day 35 from tumour inoculum) was 1.7% and the “Mouse body weight, group Mean” value ([1]; day 38 from tumour inoculum) was 27.2 g. For the same compound, the BWL % ([1]; day 38 from tumour inoculum) was −0.7%, the “Mouse body weight, group Mean” value ([1]; day 42 from tumour inoculum) was 28.4 g and the BWL % ([1]; day 42 from tumour inoculum) was 3.5%. For the same compound, the “Mouse body weight, group Mean” value ([1]; day 46 from tumour inoculum) was 27.8 g, the BWL % ([1]; day 46 from tumour inoculum) was 1.5% and the “Mouse body weight, group Mean” value ([1]; day 49 from tumour inoculum) was 28.4 g. The BWL % ([1]; day 49 from tumour inoculum) was 3.6%, the “Mouse body weight, group Mean” value ([1]; day 53 from tumour inoculum) was 28.1 g and the BWL % ([1]; day 53 from tumour inoculum) was 2.3%. For the same compound, the “TC-71 tumour weight, individual mice” value (TC-71 Ewing sarcoma; [3]) was 316.8 mg and 124.6 mg and 103.5 mg and 88.1 mg, the “TC-71 tumour weight, mean” value (TC-71 Ewing sarcoma; [3]) was 106.4 mg and the “TC-71 tumour weight, individual mice” value (TC-71 Ewing sarcoma; [4]) was 90.6 mg and 45.7 mg and 63.3 mg. The “TC-71 tumour weight, mean” value (TC-71 Ewing sarcoma; [4]) was 76.4 mg, the “TC-71 tumour weight, individual mice” value (TC-71 Ewing sarcoma; [5]) was 87.8 mg and 16.6 mg and 9.9 mg and 17.1 mg and the “TC-71 tumour weight, mean” value (TC-71 Ewing sarcoma; [5]) was 22.6 mg. The “TC-71 tumour weight, individual mice” value (TC-71 Ewing sarcoma; [6]) was 99.6 mg and 41.5 mg and 23.8 mg and 72.8 mg, the “TC-71 tumour weight, mean” value (TC-71 Ewing sarcoma; [6]) was 35.0 mg and the “TC-71 tumour weight, individual mice” value (TC-71 Ewing sarcoma; [7]) was 44.2 mg and 11.3 mg and 8.8 mg and 28.1 mg. The “TC-71 tumour weight, mean” value (TC-71 Ewing sarcoma; [7]) was 14.8 mg, the “optimal T/C” value (TC-71 Ewing sarcoma; 50 mg/kg i.v. q7dx3, day 21) was 0.4% and the “TC-71 tumour weight, individual mice” value (TC-71 Ewing sarcoma; [8]) was 9.6 mg and 2.4 mg and 6.1 mg and 7.5 mg. For the same compound, the “TC-71 tumour weight, mean” value (TC-71 Ewing sarcoma; [8]) was 6.1 mg, the “TC-71 tumour weight, individual mice” value (TC-71 Ewing sarcoma; [9]) was 1.7 mg and 5.4 mg and the “TC-71 tumour weight, mean” value (TC-71 Ewing sarcoma; [9]) was 7.0 mg. The “TC-71 tumour weight, individual mice” value (TC-71 Ewing sarcoma; [10]) was 9.9 mg and 3.3 mg, the “TC-71 tumour weight, mean” value (TC-71 Ewing sarcoma; [10]) was 5.9 mg and the “TC-71 tumour weight, individual mice” value (TC-71 Ewing sarcoma; [11]) was 6.8 mg and 1.5 mg and 3.3 mg and 2.5 mg. The “TC-71 tumour weight, mean” value (TC-71 Ewing sarcoma; [11]) was 3.5 mg, the “TC-71 tumour weight, individual mice” value (TC-71 Ewing sarcoma; [12]) was 15.4 mg and 2.7 mg and 3.8 mg and 2.6 mg and the “TC-71 tumour weight, mean” value (TC-71 Ewing sarcoma; [12]) was 6.1 mg. The “TC-71 tumour weight, individual mice” value (TC-71 Ewing sarcoma; [13]) was 83.7 mg and 8.2 mg and 12.1 mg and 9.2 mg, the “TC-71 tumour weight, mean” value (TC-71 Ewing sarcoma; [13]) was 28.3 mg and the “TC-71 tumour weight, individual mice” value (TC-71 Ewing sarcoma; [14]) was 223.4 mg and 42.7 mg and 36.0 mg and 53.8 mg. The “TC-71 tumour weight, mean” value (TC-71 Ewing sarcoma; [14]) was 88.9 mg, the “TC-71 tumour weight, individual mice” value (TC-71 Ewing sarcoma; [15]) was 713.8 mg and 105.6 mg and 74.5 mg and 145.5 mg and the “TC-71 tumour weight, mean” value (TC-71 Ewing sarcoma; [15]) was 259.8 mg. The “TC-71 tumour weight, individual mice” value (TC-71 Ewing sarcoma; [16]) was 2687.8 mg and 327.2 mg and 346.6 mg and 199.0 mg, the “TC-71 tumour weight, mean” value (TC-71 Ewing sarcoma; [16]) was 890.2 mg and the “TC-71 tumour weight, individual mice” value (TC-71 Ewing sarcoma; [17]) was 2443.2 mg and 627.6 mg and 589.7 mg and 305.0 mg. For the same compound, the “TC-71 tumour weight, mean” value (TC-71 Ewing sarcoma; [17]) was 991.4 mg, the “TC-71 tumour weight, individual mice” value (TC-71 Ewing sarcoma; [18]) was 2887.4 mg and 1184.6 mg and 1244.3 mg and 316.1 mg and the “TC-71 tumour weight, mean” value (TC-71 Ewing sarcoma; [18]) was 1408.1 mg. For the same compound, the “TC-71 tumour weight, individual mice” value (TC-71 Ewing sarcoma; [19]) was 3331.8 mg and 1062.6 mg and 2135.1 mg and 308.0 mg, the “TC-71 tumour weight, mean” value (TC-71 Ewing sarcoma; [19]) was 1709.4 mg and the “mice exhibiting sustained CR up to the conclusion of the experiment” value (TC-71 Ewing sarcoma; 50 mg/kg q7dx3) was 4 mice. For the same compound, the tumour regression (TC-71 Ewing sarcoma; 50 mg/kg q7dx3) was “tumour regression in all mice”.
